# Laboratory results reported in ChEMBL document CHEMBL1201862, “PubChem BioAssay data set” (2004).
# “And” between values parts separate entries of the source, which are not always exact repeats. Equal entries are not always repeated.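 All cell lines were grown in 96-well plates and treated with compound for 48 hours. At the GI50, growth is halved.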 The source made the active and inactive calls. Rule as the data show it: active = GI50 up to about 1.1 µM and inactive = higher.
# Assays:
# Assay in all cases: NCI anticancer screen, dose series, 48 h
# SF-295 = test system: SF-295
# SK-MEL-5 = test system: SK-MEL-5
# NCI/ADR-RES = test system: NCI/ADR-RES
# OVCAR-5 = test system: OVCAR-5
# HOP-62 = test system: HOP-62
# NCI-H226 = test system: NCI-H226
# BT-549 = test system: BT-549
# DU-145 = test system: DU-145
# RXF 631 = test system: RXF 631
# IGROV-1 = test system: IGROV-1
# XF498 = test system: XF498
# MDA-N = test system: MDA-N
# SK-OV-3 = test system: SK-OV-3
# HCC 2998 = test system: HCC 2998
# NCI-H460 = test system: NCI-H460
# MDA-MB-435 = test system: MDA-MB-435
# T47D = test system: T47D
# SNB-19 = test system: SNB-19
# HOP-92 = test system: HOP-92
# A549 = test system: A549
# A498 = test system: A498
# Malme-3M = test system: Malme-3M
# SK-MEL-2 = test system: SK-MEL-2
# ACHN = test system: ACHN
# DMS-273 = test system: DMS-273
# M19-MEL = test system: M19-MEL
# 786-0 = test system: 786-0
# HT-29 = test system: HT-29
# CCRF-CEM = test system: CCRF-CEM
# SW-620 = test system: SW-620
# LOX IMVI = test system: LOX IMVI
# SNB-78 = test system: SNB-78
# UACC-62 = test system: UACC-62
# UO-31 = test system: UO-31
# SF-268 = test system: SF-268
# SR = test system: SR
# RPMI-8226 = test system: RPMI-8226
# KM-20L2 = test system: KM-20L2
# HOP-18 = test system: HOP-18
# DLD-1 = test system: DLD-1
# HCT-116 = test system: HCT-116
# K562 = test system: K562
# MOLT-4 = test system: MOLT-4
# HL-60 = test system: HL-60
# SNB-75 = test system: SNB-75
# NCI-H23 = test system: NCI-H23
# DMS-114 = test system: DMS-114
# LXFL 529 = test system: LXFL 529
# EKVX = test system: EKVX
# OVCAR-8 = test system: OVCAR-8
# CAKI-1 = test system: CAKI-1
# COLO 205 = test system: COLO 205
# M14 = test system: M14
# OVCAR-3 = test system: OVCAR-3
# HCT-15 = test system: HCT-15
# SK-MEL-28 = test system: SK-MEL-28
# SN12C = test system: SN12C
# NCI-H522 = test system: NCI-H522
# UACC-257 = test system: UACC-257
# TK-10 = test system: TK-10
# KM12 = test system: KM12
# RXF 393 = test system: RXF 393
# OVCAR-4 = test system: OVCAR-4
# U-251 = test system: U-251
structure (smiles),measurement,setting,value
O=C1C(CN(Cc2ccccc2)Cc2ccccc2)CCCC1CN(Cc1ccccc1)Cc1ccccc1 (centres undefined),GI50,SF-295,44.9 µM (inactive) and 35.9 µM (inactive)
same,GI50,SK-MEL-5,> 42.5 µM (inactive) and 66.8 µM (inactive)
same,GI50,NCI/ADR-RES,> 100 µM (inactive) and > 89.1 µM (inactive)
same,GI50,OVCAR-5,34.8 µM (inactive) and > 65.3 µM (inactive)
same,GI50,HOP-62,> 62.1 µM (inactive)
same,GI50,NCI-H226,> 68.7 µM (inactive) and 52.1 µM (inactive)
same,GI50,BT-549,> 100 µM (inactive) and > 79.8 µM (inactive)
same,GI50,DU-145,> 100 µM (inactive)
same,GI50,RXF 631,> 100 µM (inactive)
same,GI50,IGROV-1,69.5 µM (inactive) and > 45.7 µM (inactive)
same,GI50,XF498,15.1 µM (inactive)
same,GI50,MDA-N,> 76 µM (inactive)
same,GI50,SK-OV-3,> 61.1 µM (inactive) and 44.5 µM (inactive)
same,GI50,HCC 2998,> 53.2 µM (inactive) and > 69.7 µM (inactive)
same,GI50,NCI-H460,> 87.3 µM (inactive) and 43.9 µM (inactive)
same,GI50,MDA-MB-435,> 100 µM (inactive) and > 92.3 µM (inactive)
same,GI50,T47D,> 100 µM (inactive)
same,GI50,SNB-19,> 57 µM (inactive)
same,GI50,HOP-92,16.7 µM (inactive) and 27.3 µM (inactive)
same,GI50,A549,> 54.5 µM (inactive)
same,GI50,A498,> 78.9 µM (inactive) and 41.5 µM (inactive)
O=C(O)C12C3CCC(C3)C1(C(=O)O)C1CCC2C1 (centres undefined),GI50,SF-295,> 100 µM (inactive)
same,GI50,SK-MEL-5,> 100 µM (inactive)
same,GI50,OVCAR-5,> 100 µM (inactive)
same,GI50,HOP-62,> 100 µM (inactive)
same,GI50,NCI-H226,> 100 µM (inactive)
same,GI50,Malme-3M,> 100 µM (inactive)
same,GI50,SK-MEL-2,> 100 µM (inactive)
same,GI50,ACHN,> 100 µM (inactive)
same,GI50,DMS-273,> 100 µM (inactive)
same,GI50,M19-MEL,92.5 µM (inactive)
same,GI50,786-0,> 100 µM (inactive)
same,GI50,HT-29,> 100 µM (inactive)
same,GI50,CCRF-CEM,32.8 µM (inactive)
same,GI50,SW-620,18.4 µM (inactive)
same,GI50,LOX IMVI,23.7 µM (inactive)
same,GI50,SNB-78,> 100 µM (inactive)
same,GI50,UACC-62,> 100 µM (inactive)
same,GI50,UO-31,> 100 µM (inactive)
same,GI50,SF-268,> 100 µM (inactive)
same,GI50,SR,60.3 µM (inactive)
same,GI50,RPMI-8226,23.3 µM (inactive)
same,GI50,KM-20L2,> 100 µM (inactive)
same,GI50,HOP-18,> 100 µM (inactive)
same,GI50,DLD-1,24.7 µM (inactive)
same,GI50,HCT-116,45.3 µM (inactive)
same,GI50,K562,89.7 µM (inactive)
same,GI50,MOLT-4,> 100 µM (inactive)
same,GI50,HL-60,39.6 µM (inactive)
same,GI50,RXF 631,> 100 µM (inactive)
same,GI50,SNB-75,> 100 µM (inactive)
same,GI50,IGROV-1,> 100 µM (inactive)
same,GI50,XF498,> 100 µM (inactive)
same,GI50,NCI-H23,> 100 µM (inactive)
same,GI50,SK-OV-3,> 100 µM (inactive)
same,GI50,DMS-114,33.9 µM (inactive)
same,GI50,HCC 2998,> 100 µM (inactive)
same,GI50,LXFL 529,> 100 µM (inactive)
same,GI50,EKVX,> 100 µM (inactive)
same,GI50,OVCAR-8,> 100 µM (inactive)
same,GI50,CAKI-1,> 100 µM (inactive)
same,GI50,COLO 205,33 µM (inactive)
same,GI50,NCI-H460,81.3 µM (inactive)
same,GI50,M14,> 100 µM (inactive)
same,GI50,OVCAR-3,> 100 µM (inactive)
same,GI50,HCT-15,39.8 µM
same,GI50,SK-MEL-28,> 100 µM (inactive)
same,GI50,SN12C,> 100 µM (inactive)
same,GI50,NCI-H522,14.7 µM (inactive)
same,GI50,SNB-19,> 100 µM (inactive)
same,GI50,HOP-92,> 100 µM (inactive)
same,GI50,A549,> 100 µM (inactive)
same,GI50,UACC-257,> 100 µM (inactive)
same,GI50,A498,> 100 µM (inactive)
same,GI50,TK-10,> 100 µM (inactive)
same,GI50,KM12,> 100 µM (inactive)
same,GI50,RXF 393,34.4 µM (inactive)
CCCCCCCCCCC(C)CCCCCCC(=O)OCC(COP(=O)([O-])OCC[N+](C)(C)C)OC(=O)CCCCCCC(C)CCCCCCCCCC (centres undefined),GI50,SF-295,> 100 µM (inactive)
same,GI50,SK-MEL-5,> 100 µM (inactive)
same,GI50,OVCAR-5,> 100 µM (inactive)
same,GI50,HOP-62,> 100 µM (inactive)
same,GI50,NCI-H226,> 100 µM (inactive)
same,GI50,Malme-3M,> 100 µM (inactive)
same,GI50,SK-MEL-2,> 100 µM (inactive)
same,GI50,ACHN,> 100 µM (inactive)
same,GI50,DMS-273,> 100 µM (inactive)
same,GI50,M19-MEL,> 100 µM (inactive)
same,GI50,786-0,> 100 µM (inactive)
same,GI50,HT-29,> 100 µM (inactive)
same,GI50,CCRF-CEM,> 100 µM (inactive)
same,GI50,SW-620,> 100 µM (inactive)
same,GI50,LOX IMVI,> 100 µM (inactive)
same,GI50,SNB-78,> 100 µM (inactive)
same,GI50,UACC-62,> 100 µM (inactive)
same,GI50,UO-31,> 100 µM (inactive)
same,GI50,SF-268,> 100 µM (inactive)
same,GI50,SR,> 100 µM (inactive)
same,GI50,RPMI-8226,> 100 µM (inactive)
same,GI50,KM-20L2,> 100 µM (inactive)
same,GI50,HOP-18,> 100 µM (inactive)
same,GI50,OVCAR-4,> 100 µM (inactive)
same,GI50,U-251,> 100 µM (inactive)
same,GI50,DLD-1,> 100 µM (inactive)
same,GI50,HCT-116,> 100 µM (inactive)
same,GI50,K562,> 100 µM (inactive)
same,GI50,MOLT-4,> 100 µM (inactive)
same,GI50,HL-60,> 100 µM (inactive)
same,GI50,RXF 631,> 100 µM (inactive)
same,GI50,SNB-75,> 100 µM (inactive)
same,GI50,IGROV-1,> 100 µM (inactive)
same,GI50,NCI-H23,> 100 µM (inactive)
same,GI50,SK-OV-3,> 100 µM (inactive)
same,GI50,DMS-114,> 100 µM (inactive)
same,GI50,HCC 2998,> 100 µM (inactive)
same,GI50,LXFL 529,> 100 µM (inactive)
same,GI50,EKVX,> 100 µM (inactive)
same,GI50,OVCAR-8,> 100 µM (inactive)
same,GI50,CAKI-1,> 100 µM (inactive)
same,GI50,COLO 205,> 100 µM (inactive)
same,GI50,NCI-H460,> 100 µM (inactive)
same,GI50,M14,> 100 µM (inactive)
same,GI50,OVCAR-3,> 100 µM (inactive)
same,GI50,HCT-15,> 100 µM
same,GI50,SK-MEL-28,> 100 µM (inactive)
same,GI50,SN12C,> 100 µM (inactive)
same,GI50,NCI-H522,> 100 µM (inactive)
same,GI50,SNB-19,> 100 µM (inactive)
same,GI50,HOP-92,> 100 µM (inactive)
same,GI50,A549,> 100 µM (inactive)
same,GI50,UACC-257,> 100 µM (inactive)
same,GI50,A498,> 100 µM (inactive)
same,GI50,TK-10,> 100 µM (inactive)
same,GI50,KM12,> 100 µM (inactive)
same,GI50,RXF 393,> 100 µM (inactive)
